Laboratory results as given in patent US8703770B2, “Pyridazine carboxamide orexin receptor antagonists” (Merck Sharp & Dohme Corp., priority 2008, dated 2014).

Biological target: OX2R (Homo sapiens (Human), UniProt O43614)
Test: radioligand binding assay, membranes from CHO cells expressing OX2 receptor
Conditions: CHO cell membranes

Sequence of OX2R (O43614 whole entry): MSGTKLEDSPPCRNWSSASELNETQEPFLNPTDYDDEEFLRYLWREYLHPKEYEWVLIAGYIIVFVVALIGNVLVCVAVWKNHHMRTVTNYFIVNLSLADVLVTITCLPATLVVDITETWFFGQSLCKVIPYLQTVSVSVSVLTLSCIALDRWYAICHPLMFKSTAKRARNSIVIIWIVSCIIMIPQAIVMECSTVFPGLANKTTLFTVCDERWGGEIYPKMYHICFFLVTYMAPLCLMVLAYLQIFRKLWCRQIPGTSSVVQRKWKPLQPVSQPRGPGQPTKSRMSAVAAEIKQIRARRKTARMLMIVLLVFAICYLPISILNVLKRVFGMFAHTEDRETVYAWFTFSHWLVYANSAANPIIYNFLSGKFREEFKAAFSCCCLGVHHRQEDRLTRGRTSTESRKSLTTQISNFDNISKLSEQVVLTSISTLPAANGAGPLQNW

Row | Structure (SMILES) | Ki
1 | COc1ccc(CNC(=O)c2cc(-c3cc(C)cc(C)c3)nnc2-c2cnn(C)c2)cc1OC [Compound 1-5, N-(3,4-dimethoxybenzyl)-6-(3,5-dimethylphenyl)-3-(1-methyl-1H-pyrazol-4-yl)pyridazine-4-carboxamide] | 3.3 nM
2 | COc1ccc(CNC(=O)c2cc(-c3cc(C)cc(Cl)c3)nnc2N2CCOCC2)cc1OC [Compound 2-2, 6-(3-chloro-5-methylphenyl)-N-(3,4-dimethoxybenzyl)-3-morpholin-4-ylpyridazine-4-carboxamide] | 0.96 nM
